The values below come from patent US20140213576A1, “NOVEL COMPOUND USEFUL FOR THE TREATMENT OF DEGENERATIVE AND INFLAMMATORY DISEASES” (GALAPAGOS NV, priority 2013, published 2014).

The test addresses T1, JAK3 (Homo sapiens, UniProt P52333).
T1 construct: purchased Carna Biosciences 09CBS-0625B
T1 sequence (P52333 1-1124): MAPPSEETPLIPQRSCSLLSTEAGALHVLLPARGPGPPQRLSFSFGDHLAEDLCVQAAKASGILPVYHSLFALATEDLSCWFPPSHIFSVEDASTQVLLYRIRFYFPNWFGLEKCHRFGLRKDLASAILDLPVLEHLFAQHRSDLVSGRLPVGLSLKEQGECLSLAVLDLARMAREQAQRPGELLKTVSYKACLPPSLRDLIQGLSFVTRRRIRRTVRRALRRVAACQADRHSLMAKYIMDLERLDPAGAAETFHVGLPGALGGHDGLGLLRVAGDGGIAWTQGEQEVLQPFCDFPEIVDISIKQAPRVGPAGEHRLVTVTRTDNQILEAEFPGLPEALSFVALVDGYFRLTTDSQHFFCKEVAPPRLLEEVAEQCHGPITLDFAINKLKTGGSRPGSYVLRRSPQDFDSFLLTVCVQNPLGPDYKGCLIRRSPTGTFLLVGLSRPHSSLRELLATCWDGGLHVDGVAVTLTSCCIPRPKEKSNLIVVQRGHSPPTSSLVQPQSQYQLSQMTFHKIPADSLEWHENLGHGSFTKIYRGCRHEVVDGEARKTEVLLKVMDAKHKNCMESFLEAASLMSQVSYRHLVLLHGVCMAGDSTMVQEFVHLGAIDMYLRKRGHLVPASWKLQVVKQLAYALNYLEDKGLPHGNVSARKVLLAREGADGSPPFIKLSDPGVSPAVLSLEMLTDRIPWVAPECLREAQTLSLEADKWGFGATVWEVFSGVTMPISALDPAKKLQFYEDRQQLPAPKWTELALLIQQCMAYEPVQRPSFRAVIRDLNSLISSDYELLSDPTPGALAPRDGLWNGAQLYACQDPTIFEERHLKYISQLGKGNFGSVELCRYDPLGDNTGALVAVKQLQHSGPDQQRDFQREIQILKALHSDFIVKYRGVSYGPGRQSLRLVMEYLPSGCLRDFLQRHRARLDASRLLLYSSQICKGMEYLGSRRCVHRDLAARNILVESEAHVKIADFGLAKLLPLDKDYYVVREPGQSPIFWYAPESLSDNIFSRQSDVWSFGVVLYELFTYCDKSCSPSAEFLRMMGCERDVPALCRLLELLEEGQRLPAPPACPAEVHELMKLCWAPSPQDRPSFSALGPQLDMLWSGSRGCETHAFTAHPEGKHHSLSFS
The test can be described thus: JAK3 Ki determination assay. It is filed as biochemical. The conditions noted are these: Lineweaver-Burk, varying ATP, polyGT substrate; read-out: Ki against JAK3. As for the experimental part: For the determination of Ki, different amounts of compound were mixed with the enzyme and the enzymatic reaction was followed as a function of ATP concentration. The Ki was determined by means of double reciprocal plotting of Km vs compound concentration (Lineweaver-Burk plot). JAK3 (Carna Biosciences, 09CBS-0625B) was used at a final concentration of 10 ng/mL. The substrate was Poly(Glu,Tyr)sodium salt (4:1), MW 20 000-50 000 (Sigma, P0275) The reaction was performed in 25 mM Tris pH 7.5, 0.01% Triton X-100, 0.5 mM EGTA, 2.5 mM DTT, 0.5 mM Na3VO4, 5 mM b-glycerolphosphate, 10 mM MgCl2 with varying concentrations of ATP and compound and stopped by addition of 150 mM phosphoric acid. Measurement of incorporated phosphate into the substrate polyGT was done by loading the samples on a filter plate (using a harvester, Perkin Elmer) and subsequent washing. Incorporated ^33P in polyGT was measured in a Topcount scintillation counter after addition of scintillation liquid to the filter plates (Perkin Elmer).

In general, Ki refers to the dissociation constant of the complex between target and ligand, obtained from inhibition or displacement.

`CCc1cc(C2CN(S(C)(=O)=O)C2)ncc1N(C)c1cc2c(cn1)ncn2C` [Compound 1, [4-Ethyl-6-(1-methanesulfonyl-azetidin-3-yl)-pyridin-3-yl]-methyl-(1-methyl-1H-imidazo[4,5-d]pyridin-6-yl)-amine]: the inhibitory constant (Ki) amounted to 0.685 µM.
